Paper PMC8769378, “Underlining the Importance of Peripheral Protic Functional Groups to Enhance the Proton Exchange of Gd-Based MRI Contrast Agents” (Inorganic Chemistry, 2021)
Marks after values point to notes of the source that are not given here.

Assays:
[1] = not fitted: fixed to the value determined for GdHPADO3A ref 7; cited from earlier work
[2] = Conditional stability constant pGd; format: physicochemical; settings: pGd = −log[Gd]free, [Gd^3+] = 1 μM, [L] = 10 μM, pH = 7.4; calculated from the constants
[3] = Stability and protonation constants of Zn^II complexes by pH potentiometry; format: physicochemical
Excerpt: The metal complexes of biomedical interest must show a high in vivo stability, which includes high thermodynamic stability and kinetic inertness to allow targeting applications and to avoid possible toxic effects derived by metal ion and ligand release via transmetalation or transchelation reactions.[2],[3],[13] The protonation constants of L2 as well as the stability and the protonation constants of GdL2 and those of the most important endogenous divalent metal complexes (Ca^II-, Zn^II-, and Cu^II) were determined by pH potentiometry (Table 1 and Table S1). In the case of GdL1, we were interested in determining the dissociation constant of the hydroxyl group that was measured also by pH potentiometry (Table 1). Experimental details and the definitions and equations used for the evaluation of the equilibrium and kinetic data are summarized in the SI.
The stability and protonation constants of Ca^2+, Zn^2+, and Cu^2+ complexes formed with the L1 ligand were determined by pH potentiometric titration. The metal-to-ligand concentration ratio was 1:1 (the concentration of the ligand was generally 0.002 M). The protonation constants of the GdL1 and GdL2 complexes were determined using pH potentiometry by titrating the preprepared complexes from pH = 3.0 to pH = 12 for GdL2 and from pH = 4.0 to pH = 12 for GdL1 with 0.2 M NaOH. The stability constants of GdL2 were determined by the “out-of-cell” technique because of the slow formation reaction. The pH range of the complexation equilibria and the time needed to reach the equilibria were determined by relaxometry for the formation of GdL2. […] For the calculation of the stability constants of GdL2, besides the protonation constants of ligands, the stability constants of the diprotonated *Gd(H2L2) out-of-cage complexes (considered as intermediates) were also used as fixed values, which were calculated from the pH potentiometric titration curve of the Gd^3+–L2 system obtained in the pH range 1.7–4.0.
For the pH measurements and titrations, the Metrohm 888 Titrando titration workstation Metrohm-6.0234.110 combined electrode was used. […] For the calculation of [H^+] from the measured pH values, the method proposed by Irving et al. was used as follows.[34] […] The differences (A) between the measured (pHread) and calculated (−log[H^+]) pH values were used to obtain the equilibrium H^+ concentration from the pH values measured in the titration experiments (A = 0.024). […]
The stability and protonation constants of CaII-, ZnII-, CuII- and GdIII-complexes of L2, expressed by Eqs. (S2) and (S3), were determined by pH-potentiometry and spectrophotometry at 25 °C in 0.15 M […]
where i=0, 1, 2, 3. […] The stability constant of GdL2 was calculated from the equilibrium data obtained by the “out-of-cell” technique due to the slow complexation reaction. […]

| pGd [2] | ZnH2L (log K) ([3]; 0.15 M NaCl, 25 °C) | ZnH3L (log K) ([3]; 0.15 M NaCl, 25 °C) | ZnHL (log K, protonation constant of the complex) ([3]; 0.15 M NaCl, 25 °C) | ZnL (log K, stability constant) ([3]; I = 0.15 M NaCl, 298 K) | SMILES | τM [1] |
| --- | --- | --- | --- | --- | --- | --- |
|  |  |  |  |  | O=C([O-])CN1CCN(CC(=O)[O-])CCN(CC(O)C(=O)O)CCN(CC(=O)[O-])CC1.[Gd+3] (stereo not drawn) [GdL2] | 20 ^c ns |
| 16.87 ^h | 3.32 (3) | 2.29 (5) | 3.86 (5) | 17.81 (6) | O=C(O)CN1CCN(CC(=O)O)CCN(C[C@@H](O)C(=O)O)CCN(CC(=O)O)CC1 [L2, (R)2,2′,2″-(10-(2-Carboxy-2-hydroxyethyl)-1,4,7,10-tetraazacyclododecane-1,4,7-triyl) Triacetic Acid] |  |
